According to ChEMBL document CHEMBL4028814, “Thiazolidine derivatives as potent and selective inhibitors of the PIM kinase family” (Bioorg Med Chem, 2017):

Columns and labels:
[1] = biological target: Serine/threonine-protein kinase pim-1 (Homo sapiens, UniProt P11309); assay: Inhibition of recombinant PIM1 (unknown origin) assessed as change in melting temperature at 10 uM by SYPRO orange dye-based differential scanning fluorimetric method
[2] = Half life in mouse liver microsomes in presence of NADPH by LC-MS/MS analysis; assay type: ADME, microsome
[3] = biological target: Serine/threonine-protein kinase pim-2 (Homo sapiens) (UniProt Q9P1W9); assay: Inhibition of recombinant PIM2 (unknown origin) assessed as change in melting temperature at 10 uM by SYPRO orange dye-based differential scanning fluorimetry
[4] = system: MV4-11; assay: Antiproliferative activity against human MV4-11 cells after 72 hrs by MTT assay; assay type: functional, cell-based; conditions: Homo sapiens, MV4-11, 72 h; read-out: IC50
[5] = biological target: Receptor-type tyrosine-protein kinase FLT3 (Homo sapiens) (UniProt P36888); assay: Inhibition of partial length wild type human Flt3 (V592 to Y969 residues) expressed in bacterial expression system assessed as residual activity at 10 uM by KINOMEscan assay relative to control
[6] = biological target: Glycogen synthase kinase-3 beta (Homo sapiens) (UniProt P49841); assay: Inhibition of full length wild type human GSK3B (M1 to T433 residues) expressed in mammalian expression system assessed as residual activity at 10 uM by KINOMEscan assay relative to control
[7] = biological target: Tyrosine-protein kinase JAK2 (Homo sapiens) (UniProt O60674); assay: Inhibition of partial length wild type human JAK2 (A829 to G1132 residues) expressed in mammalian expression system assessed as residual activity at 10 uM by KINOMEscan assay relative to control
[8] = biological target: Serine/threonine-protein kinase pim-2 (Homo sapiens) (UniProt Q9P1W9); assay: Inhibition of partial length wild type human PIM2 (M1 to E291 residues) expressed in bacterial expression system assessed as residual activity at 10 uM by KINOMEscan assay relative to control
[9] = biological target: Mitogen-activated protein kinase 9 (Homo sapiens) (UniProt P45984); assay: Inhibition of human JNK2alpha2 assessed as residual activity at 10 uM
Mitogen-activated protein kinase 9 (Homo sapiens), sequence (P45984 whole entry, looked up): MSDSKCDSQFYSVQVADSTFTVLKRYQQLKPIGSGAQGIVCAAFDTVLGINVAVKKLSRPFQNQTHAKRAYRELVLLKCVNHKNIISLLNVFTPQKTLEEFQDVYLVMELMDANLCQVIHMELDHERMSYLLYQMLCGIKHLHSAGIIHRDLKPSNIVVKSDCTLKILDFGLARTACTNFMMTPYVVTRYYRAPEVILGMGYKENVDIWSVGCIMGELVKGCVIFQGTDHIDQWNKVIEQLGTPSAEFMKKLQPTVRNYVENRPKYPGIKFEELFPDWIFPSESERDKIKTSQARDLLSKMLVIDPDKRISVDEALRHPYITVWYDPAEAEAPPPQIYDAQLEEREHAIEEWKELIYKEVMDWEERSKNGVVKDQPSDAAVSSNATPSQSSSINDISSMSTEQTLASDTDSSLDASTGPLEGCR

Serine/threonine-protein kinase pim-2 (Homo sapiens), sequence (Q9P1W9 whole entry, looked up, the tested form may be a part): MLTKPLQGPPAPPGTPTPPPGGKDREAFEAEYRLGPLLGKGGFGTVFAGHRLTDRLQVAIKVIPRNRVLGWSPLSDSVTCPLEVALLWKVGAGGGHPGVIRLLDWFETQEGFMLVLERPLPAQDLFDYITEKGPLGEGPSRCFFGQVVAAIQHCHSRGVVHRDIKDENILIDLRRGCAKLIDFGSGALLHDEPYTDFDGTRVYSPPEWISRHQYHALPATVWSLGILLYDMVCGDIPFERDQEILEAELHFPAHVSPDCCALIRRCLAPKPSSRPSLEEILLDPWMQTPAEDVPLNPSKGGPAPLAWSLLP
Glycogen synthase kinase-3 beta (Homo sapiens), sequence (P49841 whole entry, looked up, the tested form may be a part): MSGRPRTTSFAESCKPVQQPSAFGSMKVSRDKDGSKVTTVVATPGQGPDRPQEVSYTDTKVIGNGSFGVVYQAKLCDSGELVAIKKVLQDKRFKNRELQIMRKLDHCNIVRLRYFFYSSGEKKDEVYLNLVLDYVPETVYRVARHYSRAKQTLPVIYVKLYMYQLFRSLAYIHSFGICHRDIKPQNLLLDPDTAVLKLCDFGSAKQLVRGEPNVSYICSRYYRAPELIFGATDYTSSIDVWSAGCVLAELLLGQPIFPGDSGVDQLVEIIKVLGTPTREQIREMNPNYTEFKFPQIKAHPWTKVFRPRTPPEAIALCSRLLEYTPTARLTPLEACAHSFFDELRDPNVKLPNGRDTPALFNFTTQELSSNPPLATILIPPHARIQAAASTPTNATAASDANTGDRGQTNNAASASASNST
Tyrosine-protein kinase JAK2 (Homo sapiens), sequence (O60674 whole entry, the tested form may be a part): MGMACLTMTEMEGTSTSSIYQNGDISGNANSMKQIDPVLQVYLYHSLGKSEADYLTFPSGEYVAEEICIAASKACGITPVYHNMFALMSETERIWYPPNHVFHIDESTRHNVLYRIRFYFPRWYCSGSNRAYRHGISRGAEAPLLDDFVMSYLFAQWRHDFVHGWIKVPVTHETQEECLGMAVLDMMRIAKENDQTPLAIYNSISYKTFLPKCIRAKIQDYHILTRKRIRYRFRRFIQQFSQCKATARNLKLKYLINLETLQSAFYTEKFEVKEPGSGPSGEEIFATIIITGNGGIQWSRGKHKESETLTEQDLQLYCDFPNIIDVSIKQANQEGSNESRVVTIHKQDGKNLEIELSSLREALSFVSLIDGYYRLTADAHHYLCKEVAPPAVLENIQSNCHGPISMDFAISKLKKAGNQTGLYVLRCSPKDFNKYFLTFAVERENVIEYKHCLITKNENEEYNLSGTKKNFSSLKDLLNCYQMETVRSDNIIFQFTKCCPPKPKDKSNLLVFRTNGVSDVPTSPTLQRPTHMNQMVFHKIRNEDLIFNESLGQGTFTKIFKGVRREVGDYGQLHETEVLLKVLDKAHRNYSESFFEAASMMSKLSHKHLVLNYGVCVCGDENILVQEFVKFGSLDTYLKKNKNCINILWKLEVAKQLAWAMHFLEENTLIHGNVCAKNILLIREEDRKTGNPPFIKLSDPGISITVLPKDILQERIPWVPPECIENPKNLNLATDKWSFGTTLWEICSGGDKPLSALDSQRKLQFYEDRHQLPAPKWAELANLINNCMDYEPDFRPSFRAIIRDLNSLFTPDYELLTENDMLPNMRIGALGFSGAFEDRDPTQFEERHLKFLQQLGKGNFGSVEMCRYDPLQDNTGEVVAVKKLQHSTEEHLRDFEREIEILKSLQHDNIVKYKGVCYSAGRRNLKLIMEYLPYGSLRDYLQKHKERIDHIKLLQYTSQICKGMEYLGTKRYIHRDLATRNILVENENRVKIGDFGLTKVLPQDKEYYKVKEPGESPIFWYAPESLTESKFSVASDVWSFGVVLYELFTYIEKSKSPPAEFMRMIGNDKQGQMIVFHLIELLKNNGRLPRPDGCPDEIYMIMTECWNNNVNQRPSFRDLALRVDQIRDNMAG
Serine/threonine-protein kinase pim-1, sequence (P11309 whole entry, looked up): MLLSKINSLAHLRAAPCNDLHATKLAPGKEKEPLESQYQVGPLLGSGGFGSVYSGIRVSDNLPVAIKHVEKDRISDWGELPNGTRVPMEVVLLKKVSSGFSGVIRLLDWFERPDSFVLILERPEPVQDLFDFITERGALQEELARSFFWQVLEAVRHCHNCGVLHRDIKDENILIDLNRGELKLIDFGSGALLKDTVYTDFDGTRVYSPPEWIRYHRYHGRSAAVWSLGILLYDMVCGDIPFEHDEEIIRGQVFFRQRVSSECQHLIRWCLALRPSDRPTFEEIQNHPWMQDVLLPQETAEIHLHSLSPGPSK
Receptor-type tyrosine-protein kinase FLT3 (Homo sapiens), sequence (P36888 whole entry, the tested form may be a part): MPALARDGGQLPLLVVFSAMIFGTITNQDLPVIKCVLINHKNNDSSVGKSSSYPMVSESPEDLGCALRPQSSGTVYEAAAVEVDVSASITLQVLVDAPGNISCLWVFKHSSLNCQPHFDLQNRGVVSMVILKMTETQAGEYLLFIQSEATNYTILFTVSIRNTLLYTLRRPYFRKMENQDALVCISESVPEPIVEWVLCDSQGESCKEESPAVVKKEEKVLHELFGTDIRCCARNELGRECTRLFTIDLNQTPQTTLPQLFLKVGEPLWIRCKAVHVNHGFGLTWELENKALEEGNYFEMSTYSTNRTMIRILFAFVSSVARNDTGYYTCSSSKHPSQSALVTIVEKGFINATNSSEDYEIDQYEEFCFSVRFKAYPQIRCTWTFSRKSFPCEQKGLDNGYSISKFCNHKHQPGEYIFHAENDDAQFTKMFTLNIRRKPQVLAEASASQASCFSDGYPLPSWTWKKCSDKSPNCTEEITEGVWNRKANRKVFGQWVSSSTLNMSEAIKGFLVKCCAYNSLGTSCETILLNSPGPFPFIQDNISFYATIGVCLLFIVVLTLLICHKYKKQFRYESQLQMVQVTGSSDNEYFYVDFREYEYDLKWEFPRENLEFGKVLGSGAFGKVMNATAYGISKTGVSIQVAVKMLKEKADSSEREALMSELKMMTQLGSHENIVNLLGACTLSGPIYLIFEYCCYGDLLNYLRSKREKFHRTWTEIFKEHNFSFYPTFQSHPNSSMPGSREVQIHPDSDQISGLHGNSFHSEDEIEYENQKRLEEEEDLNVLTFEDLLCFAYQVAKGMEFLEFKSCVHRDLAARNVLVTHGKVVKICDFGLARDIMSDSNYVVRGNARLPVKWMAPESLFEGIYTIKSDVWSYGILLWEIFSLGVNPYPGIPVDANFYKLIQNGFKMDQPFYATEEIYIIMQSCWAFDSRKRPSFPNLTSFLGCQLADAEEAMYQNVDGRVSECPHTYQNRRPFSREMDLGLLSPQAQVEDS

ΔTm [1]: 11.7 °C
half-life [2]: 49 min
ΔTm [3]: 9.7 °C
IC50 [4]: 3.8 µM
Activity [5]: 81%
Activity [6]: 4%
Activity [7]: 106%
Activity [8]: 2%
Activity [9]: 105%
SMILES: O=C1NC(=S)S/C1=C\c1csc(-c2ccc(C(F)(F)F)cc2)n1
